Measurements as given in article PMC4685272 (Scientific Reports, 2015).
pIC50: −log10 of the molar value. Entries after “also recorded” stand apart in the source; their conditions may differ. Like-named read-outs stand apart in the source and are kept apart here. Where a SMILES comes first, the peptide text is derived from it. Bridges are numbered along the chain shown (N, C = ends). Where no end group is shown, it is not given here.

What was measured:
[1] = human serum from an healthy donor [240 µl 20% (v/v) in PBS]; details: 37 °C, up to 24 h
[2] = test system: elastolytic protease cathepsins; details: cited from earlier work
human serum = details: up to 60 min
[3] = Oxidative folding (disulfide formation) in Tris HCl pH 7.5; type: physicochemical; details: Tris HCl 100 mM pH 7.5, open vessel, RP-HPLC-ESI-MS after iodoacetamide alkylation
Experimental: Reduced HBD3 was dissolved in Tris HCl 100 mM pH 7.5 (final peptide concentration 0.5 mg/mL) and shaken in an open vessel, with periodic withdrawal of aliquots. After alkylation of the free thiol groups with iodoacetamide solution, 100 μg of each the aliquot were analysed through RP-HPLC-ESI-MS to evaluate the oxidation status. The remaining 200 μg were purified via RP-HPLC to eliminate excess iodoacetamide, lyophilized, and subjected to tryptic digestion. Tryptic fragments were then indentified through RP-HPLC-ESI-MS. The same procedure, except tryptic digestion, was used for peptides γ and ε. Full details are given in the SI.

CD98_304-414 = target: T1, CD98_304-414 (Homo sapiens, UniProt P08195); experiment: SPR binding to immobilized CD98_304-414; details: 25 °C
T1 construct: GST-CD98 (102-630) and the truncated GST-CD98 (304-414); purchased Novus Biologicals, Littleton, CO
T1 sequence (P08195 304-414 isoform P08195-1): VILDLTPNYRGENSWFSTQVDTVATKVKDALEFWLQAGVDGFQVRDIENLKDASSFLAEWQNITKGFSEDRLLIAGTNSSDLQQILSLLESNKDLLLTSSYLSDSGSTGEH
Experimental: (§1) Surface Plasmon Resonance experiments were performed as previously described. For details, see SI. […]
(§2) Surface Plasmon resonance. Surface Plasmon resonance (SPR) experiments were performed using a Biacore T200 system (GE Healthcare, Uppsala, Sweden), at 25 °C . Binding assays were carried out between various CD98 sequences and both reduced and oxidized HBD3. The residue numbering […]
(§3) (Novus Biologicals, Littleton, CO) were immobilized on a CM4 and/or a CM5 sensor chip (research grade) by the standard amine coupling procedure, using HBS-EP buffer (HEPES 10 mM, NaCl 150 mM, EDTA 3 mM, Surfactant P20 0.005%, pH 7.4), as running buffer. CD98 was immobilized through activation of the sensor chip with 60 µL of N-hydroxysuccinimide and N-ethyl-N-(dimethylaminopropyl)-carbodiimide at 10 µL min-1, followed by a 30 µL injection of protein diluted in 10 mM sodium acetate buffer, pH 4.0. Unreacted activated groups were blocked by a 60 µL injection of 1 M ethanolamine at 10 µL min-1. The final amount of immobilized CD98 was typically between ~ 1500 and 5000 RU, corresponding to a protein concentration of 15 ÷ 50 mg/mL on the surface layer. Subsequently, the peptides or full-length HBD3 were injected at various concentrations (100 nM–100 µM), using HBS-EP as running buffer. The binding assays were performed under previously optimized conditions14, i.e. a contact time of 120 s, a dissociation time of 1000 s, and a flow rate of 30 µL min-1.
(§4) The SPR sensorgrams were analyzed by curve-fitting using the Biacore T200 Evaluation software.
(§5) Dose response curves were plotted using the SPR sensorgrams and the corresponding fit. Various

CD98_103-630 = target: T2, CD98_103-630 (Homo sapiens, UniProt P08195); experiment: SPR binding to immobilized CD98_103-630; details: for Koff1 / Koff2 / Kon2: 25 °C, immobilized CD98_103-630; for Kon1: Biacore T200, 25 °C, HBS-EP pH 7.4, immobilized CD98_103-630
T2 construct: GST-CD98 (102-630) and the truncated GST-CD98 (304-414); purchased Novus Biologicals, Littleton, CO
T2 sequence (P08195 102-630 isoform P08195-1): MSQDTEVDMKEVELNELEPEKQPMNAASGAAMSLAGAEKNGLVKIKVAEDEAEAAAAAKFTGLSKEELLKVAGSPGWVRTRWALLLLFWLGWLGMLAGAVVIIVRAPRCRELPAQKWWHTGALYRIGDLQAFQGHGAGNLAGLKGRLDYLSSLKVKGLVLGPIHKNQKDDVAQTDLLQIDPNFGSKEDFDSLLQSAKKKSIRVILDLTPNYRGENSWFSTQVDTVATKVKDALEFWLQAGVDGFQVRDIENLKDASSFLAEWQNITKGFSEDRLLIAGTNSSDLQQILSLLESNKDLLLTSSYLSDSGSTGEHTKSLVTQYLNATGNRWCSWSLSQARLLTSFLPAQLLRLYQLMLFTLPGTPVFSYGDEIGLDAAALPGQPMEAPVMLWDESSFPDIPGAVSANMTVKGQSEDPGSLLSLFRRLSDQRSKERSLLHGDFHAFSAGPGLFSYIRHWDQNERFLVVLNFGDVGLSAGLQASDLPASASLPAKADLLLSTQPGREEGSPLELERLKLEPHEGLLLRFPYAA
Experimental: as §1, §2, §3, §4, §5

HSV-1 = experiment: HSV infectivity on Vero cell monolayers (plaque count); type: cell-based, Herpes simplex virus; details: for pIC50: read-out: concentration showing 50% inhibition
Experimental: The antiviral activity of the γ-core peptides γ and ε in oxidized and reduced form was evaluated, in comparison with reduced HBD3, against HIV and HSV. To establish in which phase, if any, the peptides inhibit virus infectivity, we performed experiments in four conditions: a) peptides incubated with the virus before being added to the target cells (“virus pre-treatment”), b) peptides incubated with the cells before exposure to the virus (“cell pre-treatment”), c) simultaneous addition of peptides and virus to the target cells (“co-treatment”), and d) peptides added to the virus-exposed cells (“post-treatment”).
The antiviral activity of the peptides against human immunodeficiency virus (HIV) and herpes simplex virus (HSV) was measured as previously described. For details, see SI. […]
Antiviral Activity against Herpes Simplex Virus (HSV). Vero cells were grown in Dulbecco’s modified Eagle’s medium (DMEM) supplemented with 10% fetal calf serum. HSV-1 carrying a lacZ gene driven by the cytomegalovirus (CMV) IE-1 promoter to express beta-galactosidase was propagated as described elsewhere12. All experiments were conducted in parallel with no-peptide controls. The effect of peptides on the inhibition of HSV infectivity on cell monolayers13 was assessed as follows: (i) For “co-exposure” experiments, the cells were incubated with increasing concentrations of the peptides (1, 5, 10, 20, 50, 100 and 150 µM) and with the viral inoculum for 45 min at 37°C. Non -penetrated viruses were inactivated by citrate buffer at pH 3.0. Monolayers were fixed, stained with 5-bromo-4-chloro-3-indolyl-beta-D-galactopyranoside (X-gal) and plaque […]
numbers were scored. Experiments were performed in triplicate and the % inhibition was calculated vs. the no-peptide control; (ii) For “virus pre-exposure” experiments, approximately 2 x 10^4 PFU of HSV-1 were incubated with increasing concentrations of the peptides for 45 min at 37°C, then titrated on Vero cell monolayers; iii) For “cell pre-exposure” experiments, Vero cells were incubated with increasing concentrations of the peptides for 30 min at 4°C, and infected with serial dilutions of HSV-1 for 45 min at 37°C; and iv) For “po st-exposure” experiments, Vero cell monolayers were incubated with virus for 45 minutes at 37°C and afterwards the peptides were added to the inoculum, followed by an additional incubation period of 30 minutes at 37°C. […]

[4] = cited from earlier work
[5] = test system: elastolytic protease cathepsins; details: cited from earlier work; remark: listed apart in the source
Excerpt: We asked whether the γ-core motif within HBDs represents a primordial HDP that evolved into the full-length molecules of today. To answer the question, we analyzed the structural and biological properties of the β-hairpin peptide of HBD3, which is the smallest substructure encompassing the γ-core motif (Fig. 1B).

| Compound | Koff1 (CD98_304-414) | Koff2 (CD98_304-414) | Kon1 (CD98_304-414) | Kon2 (CD98_304-414) | Koff1 (CD98_103-630) | Koff2 (CD98_103-630) | Kon2 (CD98_103-630) | Kon1 (CD98_103-630) | further results |
| --- | --- | --- | --- | --- | --- | --- | --- | --- | --- |
| Ac-CLPKEEQIGKSSTRGRKSC-NH2 | – | – | – | – | – | – | – | – | not cleaved [1]: found intact after 24 h incubation |
| GIINTLQKYYCRVRGGRCAVLSCLPKEEQIGKCSTRGRKCCRRKK | – | – | – | – | – | – | – | – | not cleaved (plasma): stable in plasma; fragment found [2]: the sequence from 22 to 45 amino acids residues of HBD3 |
| Ac-CLPKEEQIGKSSTRGRKSCRRKK-NH2 | – | – | – | – | – | – | – | – | fragment found (human serum): disulfide-bridged form (oxidized peptide γ); cleaved bond [1]: Arg20-Arg21, 6 h; also recorded: Lys22-Lys23, 6 h; also recorded: Cys19-Arg20, 6 h |
| CC[C@H](C)[C@@H]1NC(=O)[C@H](CCC(N)=O)NC(=O)[C@H](CCC(=O)O)NC(=O)[C@H](CCC(=O)O)NC(=O)[C@H](CCCCN)NC(=O)[C@@H]2CCCN2C(=O)[C@H](CC(C)C)NC(=O)[C@H](CO)NC(=O)[C@H](CO)NC(=O)[C@H](CC(C)C)NC(=O)[C@H](C(C)C)NC(=O)[C@H](C)NC(=O)[C@@H](NC(C)=O)CSSC[C@@H](C(N)=O)NC(=O)[C@H](CCCCN)NC(=O)CNC1=O [peptide δ, [S^23]HBD3_18–33] (Ac-CAVLSSLPKEEQIGKC-NH2; disulfide 1-16) | – | – | – | – | – | – | – | – | oxidation state (intramolecular disulfide) after 3 h [3]: still mostly reduced |
| [S^33,40]HBD3_23–41 [Peptide ε] | 5.38 ± 0.05 ×10^−2 s^−1 | 0.116 ± 0.06 ×10^−3 s^−1 | 0.71 ± 0.04 ×10^3 M^−1s^−1 | 5.67 ± 0.05 x10^−3 s^−1 | 5.48 ± 0.03 ×10^−2 s^−1 | 0.128 ± 0.04 ×10^−3 s^−1 | 1.24 ± 0.04 x10^−3 s^−1 | 0.73 ± 0.02 ×10^3 M^−1s^−1 | fold lower affinity for CD98 than HBD3 (CD98_103-630; from Table 1): 70 fold |
| human β-defensin 3 (GIINTLQKYYCRVRGGRCAVLSCLPKEEQIGKCSTRGRKCCRRKK; not fully specified (bridges); cysteine pairing not given here; UniProt P81534 23-67, looked up) [HBD3, reference compound] | 1.26 ± 0.03 ×10^−2 s^−1 | 0.907 ± 0.007 ×10^−3 s^−1 | 4.65 ± 0.07 ×10^3 M^−1s^−1 | 5.44 ± 0.06 x10^−3 s^−1 | 2.10 ± 0.03 ×10^−2 s^−1 | 1.930 ± 0.03 ×10^−3 s^−1 | 9.03 ± 0.06 x10^−3 s^−1 | 8.51 ± 0.05 ×10^3 M^−1s^−1 | pIC50 (HSV-1; cell pre-treatment): 5.00; pIC50 (HSV-1; co-exposure): 5.00; efficacy against HSV in words (HSV-1; post-exposure / post-treatment conditions): no efficacy; pIC50 (HSV-1; virus pre-exposure): 4.70; stability in human serum in words [4]: highly stable; degradation by cathepsins in words [5]: rapidly degraded |
